SMILES strings stand for the structures. Active and inactive are the calls of the source. No cut-off for these calls is given here.

Data on one molecule can be found in ChEMBL document CHEMBL1149722, “Alkaloids from Psychotria oleoides with activity on growth hormone release” (J Nat Prod, 1992).

The species entered for the test is Rattus norvegicus. Briefly: Antagonist activity at SRIF in rat pituitary culture assessed as effect on growth hormone secretion. It counts as functional.

On to `CN1CC[C@]2(c3cccc4c3C[C@H]3N(C)CC[C@@]45[C@@H]4Nc6c([C@]78CCN(C)[C@H]7Nc7ccccc78)cccc6[C@]35CCN4C)c3ccccc3N[C@H]12`, for which the outcome was Active.
